Test results from patent publication US10526295B2, “Nuclear transport modulators and uses thereof” (Karyopharm Therapeutics Inc., priority 2015, dated 2020).

Tests used:
Format in all cases: cell-based
3T3 cells = assay: MTT cell proliferation assay (3T3); conditions: Mus musculus, NIH3T3; 3T3 fibroblast cells; approximately 64-72 hours incubation; 1 nM to 30 μM
Method: (§1) The MTT cell proliferation assay was used to study the cytotoxic properties of the compounds. The assay was performed according to the method described by Roche Molecular Biochemicals, with minor modifications. The assay is based on the cleavage of the tetrazolium salt, MTT, in the presence of an electron-coupling reagent. The water-insoluble formazan salt produced must be solubilized in an additional step. Cells grown in a 96-well tissue culture plate were incubated with the MTT solution for approximately 4 hours. After this incubation period, a water-insoluble formazan dye formed. After solubilization, the formazan dye was quantitated using a scanning multi-well spectrophotometer (ELISA reader). […] The cells were seeded at 5,000-10,000 cells in each well of 96-well plate in 100 μL of fresh culture medium and were allowed to attach overnight. The stock solutions of the compounds were diluted in 100 μL cell culture medium to obtain eight concentrations of each test compound, ranging from 1 nM to 30 μM. […] All optical densities were measured at 490 nm using a Vmax Kinetic Microplate Reader (Molecular Devices). In most cases, the assay was performed in duplicate and the results were presented as a mean percent inhibition to the negative control±SE. The following formula was used to calculate the percent of inhibition: Inhibition (%)=(1−(ODo/OD))×100.
(§2) The compounds were tested against Z138, MM1S and 3T3 cells. The Z138 cell line is a mature B-cell acute lymphoblastic leukemia cell line derived from a patient with chronic lumphocytic leukemia. The MM1S cell line was established from the peripheral blood of a human multiple myeloma patient. 3T3 cells are standard fibroblast cells; they were originally isolated from Swiss mouse embryo tissue.

MM1S cells = assay: MTT cell proliferation assay (MM1S); conditions: Homo sapiens, MM1.S; MM1S multiple myeloma cells; approximately 64-72 hours incubation; 1 nM to 30 μM
Method: as §1, §2

Z138 cells = assay: MTT cell proliferation assay (Z138); conditions: Homo sapiens, Z-138, approximately 64-72 hours incubation, 1 nM to 30 μM
Method: as §1, §2

Row | SMILES | IC50 (3T3 cells) [µM] | IC50 (MM1S cells) [µM] | IC50 (Z138 cells) [µM]
1 | NC(=O)/C(=C/n1cnc(-c2cc(C(F)(F)F)cc(C(F)(F)F)c2)n1)c1cccc(S(=O)(=O)N2CCC(F)(F)CC2)c1 [Compound 122, (E)-3-(3-(3,5-bis(trifluoromethyl)phenyl)-1H-1,2,4-triazol-1-yl)-2-(3-(4,4-difluoropiperidin-1-ylsulfonyl)phenyl)acrylamide] | > 30 | 0.1 to 5 | 0.1 to 5
2 | NC(=O)/C(=C/n1cnc(-c2cc(C(F)(F)F)cc(C(F)(F)F)c2)n1)c1cccc(S(=O)(=O)N2CC(F)C2)c1 [Compound 123, (E)-3-(3-(3,5-bis(trifluoromethyl)phenyl)-1H-1,2,4-triazol-1-yl)-2-(3-(3-fluoroazetidin-1-ylsulfonyl)phenyl)acrylamide] | > 30 | 0.1 to 5 | 0.1 to 5
3 | CN1CCN(S(=O)(=O)c2cccc(/C(=C\n3cnc(-c4cc(C(F)(F)F)cc(C(F)(F)F)c4)n3)C(N)=O)c2)CC1 [Compound 124, (E)-3-(3-(3,5-bis(trifluoromethyl)phenyl)-1H-1,2,4-triazol-1-yl)-2-(3-(4-methylpiperazin-1-ylsulfonyl)phenyl)acrylamide] | > 30 | 0.1 to 5 | 0.1 to 5
4 | NC(=O)/C(=C/n1cnc(-c2cc(C(F)(F)F)cc(C(F)(F)F)c2)n1)c1cccc(S(=O)(=O)N2CCCC2)c1 [Compound 125, (E)-3-(3-(3,5-bis(trifluoromethyl)phenyl)-1H-1,2,4-triazol-1-yl)-2-(3-(pyrrolidin-1-ylsulfonyl)phenyl)acrylamide] | > 30 | 0.1 to 5 | 0.1 to 5
5 | NC(=O)/C(=C/n1cnc(-c2cc(C(F)(F)F)cc(C(F)(F)F)c2)n1)c1cccc(S(=O)(=O)N2CCC(C(F)(F)F)CC2)c1 [Compound 126, (E)-3-(3-(3,5-bis(trifluoromethyl)phenyl)-1H-1,2,4-triazol-1-yl)-2-(3-(4-(trifluoromethyl)piperidin-1-ylsulfonyl)phenyl)acrylamide] | > 30 | 5 to 30 | 0.1 to 5
6 | NC(=O)/C(=C/n1cnc(-c2cc(C(F)(F)F)cc(C(F)(F)F)c2)n1)c1cccc(S(=O)(=O)N2CCC2)c1 [Compound 127, (E)-2-(3-(azetidin-1-ylsulfonyl)phenyl)-3-(3-(3,5-bis(trifluoromethyl)phenyl)-1H-1,2,4-triazol-1-yl)acrylamide] | 0.1 to 5 | 0.1 to 5 | 0.1 to 5
7 | NC(=O)/C(=C/n1cnc(-c2cc(C(F)(F)F)cc(C(F)(F)F)c2)n1)c1cccc(S(=O)(=O)N2CCC(F)(F)C2)c1 [Compound 128, (E)-3-(3-(3,5-bis(trifluoromethyl)phenyl)-1H-1,2,4-triazol-1-yl)-2-(3-(3,3-difluoropyrrolidin-1-ylsulfonyl)phenyl)acrylamide] | 0.1 to 5 | > 30 | 0.1 to 5
